From ChEMBL document CHEMBL6092181, “Design, synthesis, and biological evaluation of imidazo[4,5-b]pyridine mitochondrial uncouplers for the treatment of metabolic dysfunction-associated steatohepatitis (MASH)” (Eur J Med Chem, 2024)
Active and inactive are the calls of the source. The calls are words filed in the database; no cut-off is given here.

How the values were obtained:
L6 [1] = experiment: Uncoupling activity in rat L6 myoblasts assessed as oxygen consumption rate incubated for 2 mins relative to N5,N6-bis(2-fluorophenyl)-[1,2,5]oxadiazolo[3,4-b]pyrazine-5,6-diamine; type: functional
L6 [2] = experiment: Uncoupling activity in rat L6 myoblasts assessed as oxygen consumption rate incubated over 90 mins; type: functional, cell-based
[3] = Half-life in C57BL/6 mouse at 10 mg/kg, po by LC-MS/MS method; type: ADME, organism-based; conditions: in vivo
[4] = Cmax in C57BL/6 mouse at 10 mg/kg, po by LC-MS/MS method; type: ADME, organism-based; conditions: in vivo
Mus musculus [5] = experiment: Anti-MASH activity in GAN-diet induced metabolic dysfunction associated steatohepatitis in C57BL/6 mouse assessed as change in plasma cholesterol level at 100 to 300 mg/kg, po administered daily measured after 4 weeks; type: functional, organism-based; conditions: dose 100-300 mg/kg
Mus musculus [6] = experiment: Anti-MASH activity in GAN-diet induced metabolic dysfunction associated steatohepatitis in C57BL/6 mouse assessed as change in liver size at 100 to 300 mg/kg, po administered daily measured after 4 weeks; type: functional, organism-based; conditions: dose 100-300 mg/kg
[7] = Toxicity in C57BL/6 mouse assessed as change in body weight at 30 to 1000 mg/kg, po measured after 24 hrs; type: organism-based; conditions: in vivo, dose 30-1000 mg/kg
Mus musculus [8] = experiment: Anti-MASH activity in GAN-diet induced metabolic dysfunction associated steatohepatitis in C57BL/6 mouse assessed as change in plasma triglyceride level at 100 to 300 mg/kg, po administered daily measured after 4 weeks; type: functional, organism-based; conditions: dose 100-300 mg/kg
[9] = Induction of respiration in rat L6 cells assessed as oxygen consumption rate at 3.3 uM pretreated with compound followed by N5,N6-bis(2-fluorophenyl)-[1,2,5]oxadiazolo[3,4-b]pyrazine-5,6-diamine addition; type: functional
[10] = Toxicity in C57BL/6 mouse assessed as change in body weight at 100 to 300 mg/kg, po administered daily and measured after 31 days; type: organism-based; conditions: in vivo, 744 h, dose 100-300 mg/kg, time 31 day
[11] = Cmax in C57BL/6 mouse at 30 mg/kg, po by LC-MS/MS method; type: ADME, organism-based; conditions: in vivo
[12] = Toxicity in C57BL/6 mouse assessed as change in body temperature at 30 to 1000 mg/kg, po measured after 24 hrs; type: organism-based; conditions: in vivo, dose 30-1000 mg/kg
L6 [13] = experiment: Uncoupling activity in rat L6 cells assessed as increase in oxygen consumption rate incubated for 40 mins in presence of rotenone; type: functional, cell-based
L6 [14] = experiment: Uncoupling activity in rat L6 cells assessed as increase in oxygen consumption rate incubated for 40 mins in presence of antimycin A; type: functional, cell-based
[15] = Half-life in C57BL/6 mouse at 30 mg/kg, po by LC-MS/MS method; type: ADME, organism-based; conditions: in vivo
[16] = Toxicity in C57BL/6 mouse assessed as adverse effect at 30 to 1000 mg/kg, po measured after 24 hrs; type: organism-based; conditions: in vivo, dose 30-1000 mg/kg
[17] = Induction of respiration in rat L6 cells assessed as oxygen consumption rate at 3.3 uM; type: functional
Mus musculus [18] = experiment: Anti-MASH activity in GAN-diet induced metabolic dysfunction associated steatohepatitis in C57BL/6 mouse assessed as decrease in liver triglyceride level at 100 to 300 mg/kg, po administered daily measured after 4 weeks; type: functional, organism-based; conditions: dose 100-300 mg/kg
[19] = Toxicity in C57BL/6 mouse assessed as change in appetite at 30 to 1000 mg/kg, po measured after 24 hrs; type: organism-based; conditions: in vivo, dose 30-1000 mg/kg
L6 [20] = experiment: Cytotoxicity against rat L6 cells; type: toxicity, cell-based
[21] = Rattus norvegicus, L6, 1.5 h, read-out: EC50

| SMILES | Activity (L6 [1]) | EC50 (L6 [2]; [21]) | other results |
| --- | --- | --- | --- |
| FC(F)(F)c1nc2c(-c3ccc(Cl)cc3)ccnc2[nH]1 | 22% | > 100 µM | – |
| Fc1ccc(Oc2ccc3nc(C(F)(F)F)[nH]c3n2)c(F)c1 | 43% | 12.6 µM | – |
| FC(F)(F)c1cc(-c2ccnc3[nH]c(C(F)(F)F)nc23)cc(C(F)(F)F)c1 | 45% | > 100 µM | – |
| FC(F)(F)Oc1ccc(-c2ccc3nc(C(F)(F)F)[nH]c3n2)cc1 | 2% | 1.3 µM | – |
| FC(F)(F)c1nc2c(-c3ccccc3)ccnc2[nH]1 | – | – | EC50 (L6 [2]; l6): Not_active |
| CC(=O)c1ccc(-c2ccnc3[nH]c(C(F)(F)F)nc23)cc1 | 21% | > 100 µM | – |
| FC(F)(F)c1cccc(-c2ncnc3[nH]c(C(F)(F)F)nc23)c1 | 46% | 1.2 µM | – |
| Fc1ccc(-c2ccnc3[nH]c(C(F)(F)F)nc23)cc1 | 6% | 4.4 µM | – |
| FC(F)(F)Oc1cccc(-c2ccc3nc(C(F)(F)F)[nH]c3n2)c1 | 8% | 1.4 µM | – |
| FC(F)(F)c1nc2c(-c3cc(Cl)cc(Cl)c3)ccnc2[nH]1 | 76% | 1.1 µM | half-life [3]: 25.3 h; Cmax [4]: 13 µM |
| Fc1cc(F)cc(-c2ccc3nc(C(F)(F)F)[nH]c3n2)c1 | 32% | 3.8 µM | – |
| Fc1ccccc1-c1ccc2nc(C(F)(F)F)[nH]c2n1 | 35% | 16 µM | – |
| FC(F)(F)Oc1ccc(-c2ccnc3[nH]c(C(F)(F)F)nc23)cc1 | 19% | 0.48 µM | – |
| Fc1ccccc1-c1ccnc2[nH]c(C(F)(F)F)nc12 | 18% | 19.4 µM | – |
| FC(F)(F)c1cccc(Oc2ccnc3[nH]c(C(F)(F)F)nc23)c1 | 20% | 3.7 µM | – |
| FC(F)c1nc2c(-c3ccc(C(F)(F)F)cc3)ccnc2[nH]1 | – | – | EC50 (L6 [2]; l6): Not_active |
| FC(F)(F)c1nc2c(Cl)ccnc2[nH]1 | 14% | 29.8 µM | – |
| FC(F)(F)c1cccc(-c2ccnc3[nH]c(C(F)(F)F)nc23)c1 | 42% | 0.85 µM | half-life [3]: 5.5 h; Cmax [4]: 28 µM |
| Fc1cccc(-c2ccnc3[nH]c(C(F)(F)F)nc23)c1 | 32% | 8.2 µM | – |
| Fc1ccccc1Oc1ccc2nc(C(F)(F)F)[nH]c2n1 | 30% | 30.8 µM | – |
| Fc1cc(F)cc(Oc2ccc3nc(C(F)(F)F)[nH]c3n2)c1 | 45% | 3.9 µM | – |
| COc1ccc(-c2ccnc3[nH]c(C(F)(F)F)nc23)cc1 | – | – | EC50 (L6 [2]; l6): Not_active |
| FC(F)(F)c1nc2c(-c3cccc(Cl)c3)ccnc2[nH]1 | 32% | 2 µM | half-life [3]: 3 h; Cmax [4]: 18 µM |
| Fc1ccc(-c2ccnc3[nH]c(C(F)(F)F)nc23)cc1F | 34% | 4.4 µM | – |

| SMILES | Activity (L6 [1]) | EC50 (L6 [2]; [21]) | other results |
| --- | --- | --- | --- |
| Fc1cc(F)cc(Oc2ccnc3[nH]c(C(F)(F)F)nc23)c1 | 43% | 11.9 µM | – |
| CC(F)(F)c1nc2c(-c3ccc(C(F)(F)F)cc3)ccnc2[nH]1 | – | – | EC50 (L6 [2]; l6): Not_active |
| Fc1ccc(-c2ccnc3[nH]c(C(F)(F)F)nc23)c(F)c1 | 36% | 11 µM | – |
| Fc1cc(F)cc(-c2ccnc3[nH]c(C(F)(F)F)nc23)c1 | 42% | 1.5 µM | half-life [3]: 2.8 h; Cmax [4]: 37 µM |
| FC(F)(F)c1ccc(-c2ccnc3[nH]c(C(F)(F)C(F)(F)F)nc23)cc1 | 31% | 4.69 µM | – |
| Fc1ccc(-c2ccc3nc(C(F)(F)F)[nH]c3n2)cc1 | 42% | 15 µM | – |
| FC(F)(F)c1cccc(Oc2ccc3nc(C(F)(F)F)[nH]c3n2)c1 | 19% | 1.8 µM | – |
| FC(F)(F)c1ccc(-c2ccc3nc(C(F)(F)F)[nH]c3n2)cc1 | 11% | 1 µM | – |
| Fc1cccc(Oc2ccc3nc(C(F)(F)F)[nH]c3n2)c1F | 39% | 7.1 µM | – |
| Fc1cc(F)cc(-c2ncnc3[nH]c(C(F)(F)F)nc23)c1 | 54% | 4 µM | – |
| FC(F)(F)c1ccc(-c2ccnc3[nH]c(C(F)(F)F)nc23)cc1 | 46% | 1.3 µM | half-life [3]: 3.4 h; Cmax [4]: 8 µM |
| Oc1ccc(-c2ccnc3[nH]c(C(F)(F)F)nc23)cc1 | – | – | EC50 (L6 [2]; l6): Not_active |
| FC(F)(F)c1ccc(-c2ncnc3[nH]c(C(F)(F)F)nc23)cc1 | 45% | 1.2 µM | – |
| Cc1ccnc2[nH]c(C(F)(F)F)nc12 | – | – | EC50 (L6 [2]; l6): Not_active |
| FC(F)(F)Oc1cccc(-c2ccnc3[nH]c(C(F)(F)F)nc23)c1 | 41% | 0.83 µM | Activity (Mus musculus [5]): inactive; Activity (Mus musculus [6]): inactive; Activity [7]: Non-toxic; Activity (Mus musculus [8]): inactive; Activity [9]: 300%; Activity [10]: Non-toxic; Cmax [11]: 34.7 µM; Activity [12]: Non-toxic; half-life [3]: 1.3 h; Activity (L6 [13]): inactive; Activity (L6 [14]): inactive; half-life [15]: 3.7 h; Cmax [4]: 22 µM; Activity [16]: Non-toxic; Activity [17]: 200%; Activity (Mus musculus [18]): Active; Activity [19]: Non-toxic |
| Cc1ccc(-c2ccnc3[nH]c(C(F)(F)F)nc23)cc1 | – | – | EC50 (L6 [2]; l6): Not_active |
| FC(F)(F)c1cccc(-c2ccc3nc(C(F)(F)F)[nH]c3n2)c1 | 36% | 3 µM | – |
| Fc1cccc(Oc2ccc3nc(C(F)(F)F)[nH]c3n2)c1 | 47% | 10.3 µM | – |
| Fc1ccc(F)c(-c2ccnc3[nH]c(C(F)(F)F)nc23)c1 | 54% | 15 µM | – |
| FC(F)(F)c1cc(-c2ncnc3[nH]c(C(F)(F)F)nc23)cc(C(F)(F)F)c1 | – | – | Activity (L6 [20]): Toxic |
| FC(F)(F)c1ccc(-c2ccnc3[nH]c(C(F)(F)F)nc23)cn1 | 25% | 2.6 µM | – |
| Fc1ccccc1Oc1ccnc2[nH]c(C(F)(F)F)nc12 | 12% | 58 µM | – |
| FC(F)(F)c1ccc(-c2ccc3nc(C(F)(F)F)[nH]c3n2)cn1 | 47% | 11.9 µM | – |
